According to patent US11634396B2 (priority 2021, dated 2023):

Each molecule was assayed against human mOR (Homo sapiens (Human), UniProt P35372) (assay: cell-based). Settings: not given.
Sequence of human mOR (P35372 whole entry): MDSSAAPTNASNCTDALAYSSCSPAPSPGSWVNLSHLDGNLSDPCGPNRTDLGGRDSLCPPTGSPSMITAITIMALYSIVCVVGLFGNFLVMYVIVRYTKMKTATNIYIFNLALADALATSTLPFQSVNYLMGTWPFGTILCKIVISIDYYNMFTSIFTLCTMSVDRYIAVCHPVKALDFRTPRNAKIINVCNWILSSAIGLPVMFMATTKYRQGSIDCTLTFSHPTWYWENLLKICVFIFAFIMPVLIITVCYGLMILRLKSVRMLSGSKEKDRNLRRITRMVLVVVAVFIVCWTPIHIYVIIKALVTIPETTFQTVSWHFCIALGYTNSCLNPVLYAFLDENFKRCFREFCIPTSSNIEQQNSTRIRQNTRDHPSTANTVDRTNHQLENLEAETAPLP

SMILES | IC50
CNC(=O)c1ccc(C[C@@H](CNC(=O)CC(c2ncccc2F)C2(C(F)(F)F)CC2)N(C)C)c(Cl)c1 (stereo partly drawn) [Compound 120, 3-chloro-4-((2S)-2-(dimethylamino)-3-(3-(3-fluoropyridin-2-yl)-3-(1-(trifluoromethyl)cyclopropyl)propanamido)propyl)-N-methylbenzamide] | < 300 nM
CNC(=O)c1ccc(C[C@@H](CNC(=O)CC(c2ccc(F)cn2)C2(C(F)(F)F)CC2)N(C)C)c(Cl)c1 (stereo partly drawn) [Compound 121, 3-chloro-4-((2S)-2-(dimethylamino)-3-(3-(5-fluoropyridin-2-yl)-3-(1-(trifluoromethyl)cyclopropyl)propanamido)propyl)-N-methylbenzamide] | < 300 nM
CNC(=O)c1ccc(C[C@@H](CNC(=O)CC(c2ccc(Cl)cn2)C2(C(F)(F)F)CC2)N(C)C)c(Cl)c1 (stereo partly drawn) [Compound 122, 3-chloro-4-((2S)-3-(3-(5-chloropyridin-2-yl)-3-(1-(trifluoromethyl)cyclopropyl)propanamido)-2-(dimethylamino)propyl)-N-methylbenzamide] | < 300 nM
CNC(=O)c1ccc(C[C@@H](CNC(=O)C[C@H](c2cnc(C)s2)C2(C(F)(F)F)CC2)N(C)C)c(F)c1 [Compound 123, 4-((S)-2-(dimethylamino)-3-((S)-3-(2-methylthiazol-5-yl)-3-(1-(trifluoromethyl)cyclopropyl)propanamido)propyl)-3-fluoro-N-methylbenzamide] | < 300 nM
CNC(=O)c1ccc(C[C@@H](CNC(=O)C[C@H](c2ccc(C)nc2)C2(C(F)(F)F)CC2)N(C)C)c(C)c1F [Compound 125, 4-((S)-2-(dimethylamino)-3-((R)-3-(6-methylpyridin-3-yl)-3-(1-(trifluoromethyl)cyclopropyl)propanamido)propyl)-2-fluoro-N,3-dimethylbenzamide] | < 300 nM
CNC(=O)c1ccc(C[C@@H](CNC(=O)C[C@@H](CC(C)C)c2cccnc2)N(C)C)c(C)c1 [Compound 126, 4-((S)-2-(dimethylamino)-3-((R)-5-methyl-3-(pyridin-3-yl)hexanamido)propyl)-N,3-dimethylbenzamide] | > 3000 nM
CNC(=O)c1ccc(C[C@@H](CNC(=O)C[C@H](c2ccncc2F)C2(C(F)(F)F)CC2)N(C)C)c(C)c1 [Compound 127, 4-((S)-2-(dimethylamino)-3-((R)-3-(3-fluoropyridin-4-yl)-3-(1-(trifluoromethyl)cyclopropyl)propanamido)propyl)-N,3-dimethylbenzamide] | < 300 nM
CNC(=O)c1ccc(C[C@@H](CNC(=O)C[C@H](c2ccc(F)cc2)C2(C(F)(F)F)CC2)N(C)C)c(C)c1 [Compound 128, 4-((S)-2-(dimethylamino)-3-((R)-3-(4-fluorophenyl)-3-(1-(trifluoromethyl)cyclopropyl)propanamido)propyl)-N,3-dimethylbenzamide] | < 300 nM
CNC(=O)c1ccc(C[C@@H](CNC(=O)C[C@H](c2cccnc2)C(C)(C)C)N(C)C)c(C)c1 [Compound 129, 4-((S)-3-((S)-4,4-dimethyl-3-(pyridin-3-yl)pentanamido)-2-(dimethylamino)propyl)-N,3-dimethylbenzamide] | < 300 nM
CNC(=O)c1ccc(C[C@@H](CNC(=O)C[C@H](c2cccnc2)C2(C(F)(F)F)CC2)N(C)C)c(C)c1 [Compound 131, 4-((S)-2-(dimethylamino)-3-((R)-3-(pyridin-3-yl)-3-(1-(trifluoromethyl)cyclopropyl)propanamido)propyl)-N,3-dimethylbenzamide] | < 300 nM
CNC(=O)c1ccc(C[C@@H](CNC(=O)C[C@H](c2ccc(C)nc2)C2(C(F)(F)F)CC2)N(C)C)c(C)c1 [Compound 132, 4-((S)-2-(dimethylamino)-3-((R)-3-(6-methylpyridin-3-yl)-3-(1-(trifluoromethyl)cyclopropyl)propanamido)propyl)-N,3-dimethylbenzamide] | < 300 nM
CNC(=O)c1ccc(C[C@@H](CNC(=O)C[C@@H](CC2CC2)c2cccnc2)N(C)C)c(C)c1 [Compound 133, 4-((S)-3-((R)-4-cyclopropyl-3-(pyridin-3-yl)butanamido)-2-(dimethylamino)propyl)-N,3-dimethylbenzamide] | > 3000 nM
CNC(=O)c1ccc(C[C@@H](CNC(=O)CC(c2ccncc2)C2(C(F)(F)F)CC2)N(C)C)c(C)c1 (stereo partly drawn) [Compound 134, 4-((2S)-2-(dimethylamino)-3-(3-(pyridin-4-yl)-3-(1-(trifluoromethyl)cyclopropyl)propanamido)propyl)-N,3-dimethylbenzamide] | < 300 nM
CNC(=O)c1ccc(C[C@@H](CNC(=O)C[C@H](CC2CC2)c2ccccn2)N(C)C)c(C)c1 [Compound 139, 4-((S)-3-((S)-4-cyclopropyl-3-(pyridin-2-yl)butanamido)-2-(dimethylamino)propyl)-N,3-dimethylbenzamide] | > 3000 nM
CNC(=O)c1ccc(C[C@@H](CNC(=O)C[C@@H](CC(C)C)c2ccccn2)N(C)C)c(C)c1 [Compound 140, 4-((S)-2-(dimethylamino)-3-((R)-5-methyl-3-(pyridin-2-yl)hexanamido)propyl)-N,3-dimethylbenzamide] | > 3000 nM
CNC(=O)c1cc(C)c(C[C@@H](CNC(=O)C[C@H](c2ccccc2)C2(C(F)(F)F)CC2)N(C)C)cc1F [Compound 144, 4-((S)-2-(dimethylamino)-3-((R)-3-phenyl-3-(1-(trifluoromethyl)cyclopropyl)propanamido)propyl)-2-fluoro-N,5-dimethylbenzamide] | > 3000 nM
CNC(=O)c1ccc(C[C@@H](CNC(=O)C[C@@H](c2cncc(F)c2)C(C)(C)C)N(C)C)cc1F [Compound 151, 4-((S)-2-(dimethylamino)-3-((R)-3-(5-fluoropyridin-3-yl)-4,4-dimethylpentanamido)propyl)-2-fluoro-N-methylbenzamide] | 300 to 3000 nM
CNC(=O)c1ccc(C[C@@H](CNC(=O)C[C@H](c2cnc(C)nc2)C2(C(F)(F)F)CC2)N(C)C)cc1F [Compound 152, 4-((S)-2-(dimethylamino)-3-((R)-3-(2-methylpyrimidin-5-yl)-3-(1-(trifluoromethyl)cyclopropyl)propanamido)propyl)-2-fluoro-N-methylbenzamide] | > 3000 nM
CNC(=O)c1ccc(C[C@@H](CNC(=O)C[C@@H](c2ccccn2)C2(C(F)(F)F)CC2)N(C)C)cc1F [Compound 153, 4-((S)-2-(dimethylamino)-3-((R)-3-(pyridin-2-yl)-3-(1-(trifluoromethyl)cyclopropyl)propanamido)propyl)-2-fluoro-N-methylbenzamide] | > 3000 nM
CNC(=O)c1ccc(C[C@@H](CNC(=O)C[C@@H](c2ccccc2)C2(C(F)(F)F)CC2)N(C)C)cc1F [Compound 154, 4-((S)-2-(dimethylamino)-3-((S)-3-phenyl-3-(1-(trifluoromethyl)cyclopropyl)propanamido)propyl)-2-fluoro-N-methylbenzamide] | < 300 nM

Same assay, conditions: read-out: mOR cAMP Antagonist Assay IC50

SMILES | IC50
CNC(=O)c1ccc(C[C@@H](CNC(=O)C[C@H](c2cnc(C)nc2)C2(C(F)(F)F)CC2)N(C)C)c(C)c1 [Compound 135, 4-((S)-2-(dimethylamino)-3-((R)-3-(2-methylpyrimidin-5-yl)-3-(1-(trifluoromethyl)cyclopropyl)propanamido)propyl)-N,3-dimethylbenzamide] | > 3000 nM
